Source: patent US20250084039A1, “4-SUBSTITUTED AMINOISOQUINOLINE DERIVATIVES” (Purdue Research Foundation, priority 2016, published 2025)

What was measured:
CDK9 = CDK9 (Homo sapiens (Human), UniProt P50750); assay: DiscoverX Kd Elect binding
Procedure: HCK is expressed more in human primary leukemic stem cells than in human normal hematopoietic stem cells. […] Other protein kinases such as SYK, BRAF, p38 (p38MAPK), PDGFRα/β, FGFR1, RET, FLT4, Tie2 have also been linked to leukemia. […] Thus, it was tested if HSN286 and analogs were also targeting kinases that play critical roles in AML. […] (Table 9). The inhibition of the Src-kinase family could be important clinically because these kinases are downstream of FLT3. In the event of FLT3 mutation, the inhibition of the Src-family kinases could still lead to proliferation inhibition.

FLT3 phosphorylation = assay: Western blot in MV4-11; type: cell-based, human
Procedure: Total protein extracts were prepared using RIPA buffer (SIGMA) supplemented with Complete Mini™ protease inhibitor and PHOStop™ phosphatase inhibitors (Roche). […] The membrane was blocked with 5% dry milk in 1×TBS/0.1% Tween 20 (TBST) for at least 1 h at room temperature and incubated with human specific primary antibodies: FLT3, Phospho-FLT3, c-Myc (Cell Signaling Technologies), KRAS (Santa Cruz), or mouse anti-β-actin (SIGMA) overnight at 4° C. The membrane was washed 3 times in TBST and incubated with a horseradish peroxidase-conjugated secondary anti-rabbit or anti-mouse antibody (Cell Signaling Technologies) for 1 h at room temperature. Blots were again washed and the signal was detected with SuperSignal West Femto Chemiluminescent Substrate (Pierce) and exposed to HyBlot CL® autoradiography film (Denville).

FLT3 = FLT3 (Homo sapiens (Human), UniProt P36888); assay: Inhibition of kinase enzymatic activity (IC50); type: biochemical; conditions: in vitro
Sequence of FLT3 (P36888 27-993): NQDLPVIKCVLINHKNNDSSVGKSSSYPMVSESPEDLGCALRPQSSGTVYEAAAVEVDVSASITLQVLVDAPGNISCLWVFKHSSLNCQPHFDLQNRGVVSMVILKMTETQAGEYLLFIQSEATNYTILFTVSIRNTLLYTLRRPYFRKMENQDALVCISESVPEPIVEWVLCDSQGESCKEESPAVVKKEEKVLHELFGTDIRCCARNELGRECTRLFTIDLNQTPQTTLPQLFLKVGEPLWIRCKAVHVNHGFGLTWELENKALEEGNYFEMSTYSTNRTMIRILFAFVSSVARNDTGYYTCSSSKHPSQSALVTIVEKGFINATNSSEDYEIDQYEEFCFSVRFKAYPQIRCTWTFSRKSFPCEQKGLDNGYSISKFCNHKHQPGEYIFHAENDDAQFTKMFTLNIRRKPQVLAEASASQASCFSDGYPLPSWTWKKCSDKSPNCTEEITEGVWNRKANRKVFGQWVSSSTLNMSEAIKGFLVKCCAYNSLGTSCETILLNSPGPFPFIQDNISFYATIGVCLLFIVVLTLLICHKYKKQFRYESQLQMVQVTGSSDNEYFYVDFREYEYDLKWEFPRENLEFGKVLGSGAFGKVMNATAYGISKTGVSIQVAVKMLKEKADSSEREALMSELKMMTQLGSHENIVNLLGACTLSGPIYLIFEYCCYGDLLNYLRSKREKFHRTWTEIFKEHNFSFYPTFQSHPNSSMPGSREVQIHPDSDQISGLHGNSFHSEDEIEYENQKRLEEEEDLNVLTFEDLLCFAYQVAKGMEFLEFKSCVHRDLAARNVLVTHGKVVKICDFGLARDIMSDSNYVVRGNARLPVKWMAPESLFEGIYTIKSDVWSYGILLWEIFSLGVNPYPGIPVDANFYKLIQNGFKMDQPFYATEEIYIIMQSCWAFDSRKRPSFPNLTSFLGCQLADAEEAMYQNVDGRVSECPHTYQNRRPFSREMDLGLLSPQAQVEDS

Sequence of CDK9 (P50750 whole entry): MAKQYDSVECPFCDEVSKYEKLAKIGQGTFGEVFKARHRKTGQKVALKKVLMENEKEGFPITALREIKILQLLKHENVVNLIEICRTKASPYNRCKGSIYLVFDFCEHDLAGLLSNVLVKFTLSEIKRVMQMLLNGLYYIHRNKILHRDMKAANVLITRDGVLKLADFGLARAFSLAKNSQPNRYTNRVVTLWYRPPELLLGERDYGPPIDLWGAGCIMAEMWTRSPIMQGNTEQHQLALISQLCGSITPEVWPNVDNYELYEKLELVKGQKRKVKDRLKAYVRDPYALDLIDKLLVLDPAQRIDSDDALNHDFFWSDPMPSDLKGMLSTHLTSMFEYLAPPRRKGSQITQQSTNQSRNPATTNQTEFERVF

Cc1ccc(C(=O)Nc2ccc(CN3CCN(C)CC3)c(C(F)(F)F)c2)cc1C#Cc1c(N)ncc2ccc(Cl)cc12 [HSN286]
Kd (CDK9): 2300 nM
FLT3 phosphorylation (Western) (FLT3 phosphorylation): inhibited

Cc1ccc(C(=O)Nc2ccc(CN3CCN(C)CC3)c(C(F)(F)F)c2)cc1C#Cc1cnc(N)c2ncccc12 [HSN356, 3-((8-amino-1,7-naphthyridin-5-yl)ethynyl)-4-methyl-N-(4-((4-methylpiperazin-1-yl)methyl)-3-(trifluoromethyl)phenyl)benzamide]
IC50 FLT3 enzymatic inhibition (FLT3): single digit
